# Assay results taken from US7166599B2, “Trisubstituted pyrimidines” (Boehringer Ingelheim Pharma GmbH & Co. KG, priority 2001, dated 2007).
# Tested on: not given
# Assay: not given
# Conditions: not given
row,melting point,SMILES
1,323 °C,"CNc1nc(Nc2ccc(S(C)(=O)=O)cc2)ncc1[N+](=O)[O-] [Example 10 b), 2-(4-methylsulphonylphenylamino)-4-methylamino-5-nitropyrimidine]"
2,288 °C,"CNc1nc(Nc2ccc([S+](C)[O-])cc2)ncc1[N+](=O)[O-] (stereo not drawn) [Example 10 a), 2-(4-methylsulphinylphenylamino)-4-methylamino-5-nitropyrimidine]"
3,270 °C,CNc1nc(Nc2cccc(OCCN)c2)ncc1[N+](=O)[O-].Cl.Cl

# Tested on: γ-secretase
# Assay: γ-secretase HTS luciferase reporter assay (inhibition of Aβ formation) in H4 neuroglioma cells stably carrying pFRLuc and Aβ-KKK/Gal4
# Assay type: cell-based
# Conditions: luciferase activity (Steady-Glo) in doubly stable H4 neuroglioma HTS cell line, test substance incubated overnight (8–16 h), compared with control
# Excerpt: The inhibition of Aβ formation was investigated using the following test system:
# Preparation of a suitable γ-secretase HTS cell line:
# H4 neuroglioma cells (Accession number HTB 148 at the “American Type Culture Collection”, Manassas, Va., USA) were transfected under standard conditions with the reporter construct pFRLuc (Stratagene) which carries the gene for luciferase. By transient transfection experiments with pcDNA3-Gal4 which codes for the soluble Gal4, an individual clone having the highest luciferase activity was selected. In order to prepare the Aβ-KKK/Gal4 construct, a sequence containing the N-terminal signal sequence of APP and the first 55 amino acids of Aβ (Shoji et al, 1992) was linked to the Gal4 coding sequence (Laughan, A and Gesteland, R Molec. Cell Biol., 1984, 4: 260–267) by genetic engineering and cloned into the expression vector pcDNA3neo (Invitrogen). This construct was called pcDNA3-AβKKK/Gal4. In order to insert an ER-retention signal in the substrate of the γ-secretase, the last nucleotides of the Gal4 were altered by genetic engineering so that they coded for the amino acids KKLI. This construct was named Aβ-KKK-ER. The cell clone obtained as described above was used for the second stable transfection with pcDNA3-Aβ-KKK/Gal4 or pcDNA3-Aβ-KKK-ER and the selection with neomycin was carried out under standard conditions (Sambrook and Maniatis, 1989). Individual neomycin-resistant cell clones were investigated for their expression of luciferase. The clones with the highest expression were used for the substance analyses. All the transfections were carried out using the Fugene transfection system supplied by Boehringer Mannheim, in accordance with the manufacturer's instructions.
# The doubly stabile HTS cell line is seeded onto a 96/384 microtitre plate. When the cells are confluent, they are incubated with the particular test substance for a specified length of time. After incubation the cell medium is removed and the luciferase enzyme activity is determined precisely as instructed by the manufacturer of the test kit used (SteadyGlo, Promega).
# As a result of the presence of an endogenous γ-secretase activity in the H4 cells the substrate (Aβ-KKK/Gal4) is cleaved proteolytically, while the transactivator Gal4 is able to become detached from the membrane and enter the cell nucleus. In the cell nucleus Gal4 binds to the Gal4-DNA binding domain of the reporter construct and thus activates the expression of the luciferase. If a specific γ-secretase inhibitor is present the substrate cannot be cleaved and Gal4 remains bound to the substrate on the cell membrane, leading to a reduction amounting to total inhibition of the luciferase activity.
# Cells are seeded on 96/384 well plates in DMEM complete medium (10% FCS, 1% glutamine, 1% penicillin/streptomycin) in a dilution of 1:5. The cells are incubated for 24 to 48 h (depending on the cell clone and the dilution used) at 37° C., 5% CO2 and allowed to grow until 80–90% confluence is achieved. Then the test substance is added and the preparation is incubated overnight (8–16 h) at 37° C. and 5% CO2. The 96/384 well plates are equilibrated to ambient temperature (RT). The “Steady-Glo” Luciferase Assay System Kit (Promega catalogue no. E2520) is used. The Luciferase Assay Reagent is thawed and equilibrated to ambient temperature or freshly prepared (Luciferase Assay Substrate dissolved in Luciferase Assay Buffer). The medium is suction filtered […]. 100 μl (based on 96 well plates) of fresh complete medium are added per well. 100 μl (based on 96 well plates) of Luciferase Assay Reagent are added and the preparation is incubated for 5 min at RT. Then the luminescence is measured. For 384 well plates the quantities pipetted are reduced accordingly.
# The measurements are compared with the control and then the IC50 is determined from a number of measurements.
row,SMILES,IC50
1,"CN(C)CCCNc1nc(Nc2ccc(Cl)c(Cl)c2)ncc1[N+](=O)[O-] [4 (9), 2-(3,4-dichlorophenylamino)-4-[3-(dimethylamino)propylamino]-5-nitro-pyrimidine]",1000 nM
2,"CNc1nc(Nc2ccc(Cl)c(Cl)c2)ncc1N1CCNC1=O [3 (26), 2-(3,4-dichlorophenylamino)-4-methylamino-5-(imidazolidin-2-on-1-yl)-pyrimidine]",600 nM
3,"CCNc1nc(Nc2ccc(Cl)c(Cl)c2)ncc1NC(=O)N1CCOCC1 [3 (55), 2-(3,4-dichlorophenylamino)-4-ethylamino-5-(morpholinocarbonylamino)-pyrimidine]",900 nM
4,"CNc1nc(Nc2ccc(Cl)c(Cl)c2)ncc1NC(=O)N(C)CCCN(C)C [11 (11), 2-(3,4-dichlorophenylamino)-4-methylamino-5-[[N-methyl-(3-dimethylaminopropyl)amino]carbonylamino]-pyrimidine]",700 nM
5,"CNc1nc(Nc2ccc(Cl)c(Cl)c2)ncc1NC(=O)C(F)(F)F [3 (66), 2-(3,4-dichlorophenylamino)-4-methylamino-5-trifluoracetylamino-pyrimidine]",800 nM
6,"CNc1nc(Nc2ccc(Cl)c(Cl)c2)ncc1NC(=S)N1CCOCC1 [11 (12), 2-(3,4-dichlorophenylamino)-4-methylamino-5-(morpholinothiocarbonylamino)-pyrimidine]",1000 nM
7,"CNc1nc(N(C)c2ccc(Cl)c(Cl)c2)ncc1N1CCNC1=O [8 (2), 2-[N-(3,4-dichlorophenyl)-N-methylamino]-4-methylamino-5-(imidazolidin-2-on-1-yl)-pyrimidine]",1000 nM
8,"CNc1nc(Nc2ccc(Cl)c(Cl)c2)ncc1NC(=O)N(C)CCN(C)C [11 (10), 2-(3,4-dichlorophenylamino)-4-methylamino-5-[[N-methyl-(2-dimethylamino-ethyl)amino]carbonylamino]-pyrimidine]",800 nM
9,"CNc1nc(Nc2ccc(Cl)c(Cl)c2)ncc1N(C)S(C)(=O)=O [Example 8, 2-(3,4-dichlorophenylamino)-4-methylamino-5-(N-methyl-methylsulphonylamino)-pyrimidine]",1100 nM
10,"CNc1nc(Nc2ccc(Cl)c(Cl)c2)ncc1NC(=O)N1CCNCC1 [11 (6), 2-(3,4-dichlorophenylamino)-4-methylamino-5-(piperazinocarbonylamino)-pyrimidine]",700 nM
11,"CNc1nc(Nc2ccc(Cl)cc2)ncc1[N+](=O)[O-] [1 (1), 2-(4-chlorophenylamino)-4-methylamino-5-nitro-pyrimidine]",800 nM
12,"CN(C)c1nc(Nc2ccc(Cl)c(Cl)c2)ncc1NC(=O)N1CCOCC1 [3 (54), 2-(3,4-dichlorophenylamino)-4-dimethylamino-5-(morpholinocarbonylamino)-pyrimidine]",900 nM
13,"CNc1nc(Nc2ccc(Cl)c(Cl)c2)ncc1N [2 (1), 2-(3,4-dichlorophenylamino)-4-methylamino-5-amino-pyrimidine]",1000 nM
14,"CNc1nc(Nc2ccc(Cl)c(Cl)c2)ncc1NC(N)=O [3 (40), 2-(3,4-dichlorophenylamino)-4-methylamino-5-aminocarbonylamino-pyrimidine]",350 nM
15,"CNc1nc(Nc2ccc(Cl)c(Cl)c2)ncc1NC(=O)N1CCN(C(C)=O)CC1 [11 (7), 2-(3,4-dichlorophenylamino)-4-methylamino-5-(4-acetylpiperazinocarbonylamino)-pyrimidine]",1000 nM

# Second part, the molecule after the results:
row,IC50,SMILES
1,300 nM,"CNc1nc(Nc2ccc(Cl)c(Cl)c2)ncc1N1CCCNC1=O [3 (33), 2-(3,4-dichlorophenylamino)-4-methylamino-5-(tetrahydro-2(1H)-pyrimidinon-1-yl)-pyrimidine]"
2,150 nM,"CNc1nc(Nc2cccc(Cl)c2)ncc1NC(=O)N1CCOCC1 [3 (59), 2-(3-chlorophenylamino)-4-methylamino-5-(morpholinocarbonylamino)-pyrimidine]"
3,100 nM,"CCN(CC)C(=O)Nc1cnc(Nc2ccc(Cl)c(Cl)c2)nc1NC [11 (5), 2-(3,4-dichlorophenylamino)-4-methylamino-5-(diethylaminocarbonylamino)-pyrimidine]"
4,200 nM,"CNc1nc(Nc2ccc(Cl)c(Cl)c2)ncc1NC(=O)N(C)CCO [11 (8), 2-(3,4-dichlorophenylamino)-4-methylamino-5-[[N-methyl-(2-hydroxyethyl)-amino]carbonylamino]-pyrimidine]"
5,100 nM,"CNc1nc(Nc2ccc(Cl)c(Cl)c2)ncc1NC(=O)N1CCN(C)CC1 [11 (2), 2-(3,4-dichlorophenylamino)-4-methylamino-5-(4-methylpiperazinocarbonylamino)-pyrimidine]"
6,60 nM,"CNc1nc(Nc2ccc(Cl)c(Cl)c2)ncc1NS(C)(=O)=O [3 (3), 2-(3,4-dichlorophenylamino)-4-methylamino-5-methylsulphonylamino-pyrimidine]"
7,250 nM,"CNc1nc(Nc2ccc(Cl)cc2F)ncc1NC(=O)N(C)C [3 (36), 2-(4-chloro-2-fluorophenylamino)-4-methylamino-5-(N,N-dimethylcarbamoyl-amino)-pyrimidine]"
8,200 nM,"CNc1nc(Nc2ccc(Cl)c(Cl)c2)ncc1NC(=O)N1CCOCC1 [3 (30), 2-(3,4-dichlorophenylamino)-4-methylamino-5-morpholinocarbonylamino-pyrimidine]"
9,60 nM,"CNc1nc(Nc2ccc(Cl)c(Cl)c2)ncc1NC(=O)N1CCCCCC1 [11 (4), 2-(3,4-dichlorophenylamino)-4-methylamino-5-(hexamethyleneiminocarbonylamino)-pyrimidine]"
10,60 nM,"CNc1nc(Nc2ccc(Cl)c(Cl)c2)ncc1NC(C)=O [3 (4), 2-(3,4-dichlorophenylamino)-4-methylamino-5-acetylamino-pyrimidine]"
11,4 nM,"CNc1nc(Nc2ccc(Cl)c(Cl)c2)ncc1NC(=O)N(CCOC)CCOC [11 (3), 2-(3,4-dichlorophenylamino)-4-methylamino-5-[[bis-(2-methoxyethyl)amino]-carbonylamino]-pyrimidine]"
12,100 nM,"CNc1nc(Nc2ccc(Cl)c(Cl)c2)ncc1NC(=O)N1CCCC1 [Example 11, 2-(3,4-dichlorophenylamino)-4-methylamino-5-(pyrrolidinocarbonylamino)-pyrimidine]"
